GI50 data for 24 compounds are collected here from US20260109707A1, “HETEROBIFUNCTIONAL COMPOUNDS AND METHODS OF TREATING DISEASE” (Halda Therapeutics OpCo. Inc., priority 2022, published 2026).

Read-outs that look alike come from different tables or passages of the source.

The test system of experiment [1] is T-Rex 293 cell line SC3 cells lacking increased expression of androgen receptor protein. Put plainly: Cellular growth inhibition assay, T-Rex 293 SC3 cells without doxycycline (CellTiter-Glo, 72 hours). It counts as cell-based. As to conditions: T-Rex 293 cell line SC3 cells not exposed to doxycycline (lacking increased androgen receptor expression). The procedure, abridged: (§1)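 Doxycycline (10 ng/mL) was either included or omitted to toggle wild-type androgen receptor expression in SC3 cells, a T-Rex 293 clone, grown in stripped-serum, phenol red-free medium. After 72 hours with compound, viable cells were quantified by CellTiter-Glo 2.0.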

Experiment [2] has as its system T-Rex 293 cell line SC3 cells having increased expression of androgen receptor protein due to exposure to doxycycline. The experiment can be described thus: Cellular growth inhibition assay, T-Rex 293 SC3 cells with doxycycline (CellTiter-Glo, 72 hours). The settings on record: T-Rex 293 SC3 cells with increased androgen receptor expression due to doxycycline (10 ng/mL). It is filed as cell-based. Put shortly: as §1

Another experiment has as its system VCaP cells. The experiment can be described thus: Cellular growth inhibition assay for VCaP cells (CellTiter-Glo, 72 hours). It is filed as cell-based, human. The procedure:
VCaP cells were purchased from American Type Cell Culture (ATCC Cat #CRL2876) and then seeded on poly-D-lysine coated, black clear-bottom 384-well plates at 5000/well in 25 μL Dulbecco's Modified Eagle Medium (DMEM) supplemented with 10% w/w Fetal bovine serum (FBS) and 1% w/w Pen-Strep. Pen-Strep is a commercially available mixture of penicillin G and streptomycin, which is used in mammalian cell culture media to prevent bacterial contamination. Dulbecco's Modified Eagle Medium (DMEM) supplemented with 10% w/w fetal bovine serum (FBS) and 1% w/w Pen-Strep is herein referred to as Treatment Medium. Following seeding of cells in the plates, the plates were spun at 300×g for 30 seconds, then equilibrated to room temperature for 30 minutes, and then deposited in a humidified tissue culture incubator maintained at 37° C. with 5% C0-2.
At 24 hours after seeding of the cells, dilutions of test compound were prepared in DMSO and dissolved in Treatment Medium, to achieve a final DMSO concentration of 0.5% w/w, thereby providing the Test Compound Solution. A 25 μL aliquot of the Test Compound Solution was added to cells in the well plates. An equal volume of a solution containing DMSO and Treatment Medium was used as a negative control. Following treatment of cells with Test Compound Solution or said equal volume of a solution containing DMSO and Treatment Medium, the plates were spun at 300×g for 30 seconds, and then left in an incubator for 72 hours.
At the end of the treatment duration, cell viability was quantified with CellTiter-Glo 2.0 reagent (Promega Cat #G9243). For this purpose, plates were equilibrated to room temperature for 30 minutes, and then 25 μL of CellTiter-Glo 2.0 reagent was added to cells in the plate wells. Plates were then agitated on a shaker for two minutes at 500 rpm and subsequently incubated at room temperature for 10 minutes. Following incubation, the plates were spun at 3000×g for 30 seconds, then sealed with an optical adhesive cover, and luminescence readings were measured with an EnVision Plate Reader.
Data was normalized using zero luminescence for baseline. A four-parameter non-linear regression curve fit was applied to dose-response data in GraphPad Prism data analysis software to determine the half-maximal growth inhibitory concentration (GI50) for each test compound.

In the case of `Cc1sc2c(c1C)C(c1ccc(N3CC(C4CCN(c5ccc(C(=O)N[C@H]6CC[C@H](Oc7ccc(C#N)c(Cl)c7)CC6)nn5)CC4)C3)cc1)=NCc1nnc(C)n1-2` [I-451], the GI50 in experiment [1] (72 h) is above 3000 nM; in experiment [2] (72 h), below 500 nM; in the experiment on VCaP cells (Homo sapiens, VCaP, 72 h) it was 500 to 1500 nM.

As for `Cc1sc2c(c1C)C(c1ccc(OC3CC4(C3)CC3(CCN(c5ccc(C(=O)N[C@H]6CC[C@H](Oc7ccc(C#N)c(Cl)c7)CC6)nn5)CC3)C4)cc1)=NC1(CC1)c1nnc(C)n1-2` [I-452], the GI50 was above 3000 nM in experiment [1] (72 h); below 500 nM in experiment [2] (72 h); below 500 nM with VCaP cells (Homo sapiens, VCaP, 72 h).

`Cc1sc2c(c1C)C(c1ccc(OC3CC4(C3)CC3(CCN(c5ccc(C(=O)N[C@H]6CC[C@H](Oc7ccc(C#N)c(Cl)c7)CC6)nn5)CC3)C4)cc1)=NCc1nnc(C)n1-2` [I-453]: the concentration for 50% growth inhibition (GI50) in experiment [1] (72 h) was above 3000 nM; in experiment [2] (72 h), below 500 nM; in the experiment with VCaP cells (Homo sapiens, VCaP, 72 h), below 500 nM.

Take `Cc1sc2c(c1C)C(c1ccc(C#CC3CC4(CCCN(c5ccc(C(=O)N[C@H]6CC[C@H](Oc7ccc(C#N)c(Cl)c7)CC6)nn5)C4)C3)cn1)=NC(C)c1nnc(C)n1-2` (stereo partly drawn) [I-454]: the GI50 in experiment [1] was above 3000 nM; in experiment [2], below 500 nM; with VCaP cells (Homo sapiens, VCaP, 72 h), below 500 nM.

For `Cc1sc2c(c1C)C(c1ccc(C#CC3CC4(CCCN(c5ccc(C(=O)N[C@H]6CC[C@H](Oc7ccc(C#N)c(Cl)c7)CC6)nn5)C4)C3)cn1)=NC(C)c1nnc(C)n1-2` (stereo partly drawn) [I-455], the concentration for 50% growth inhibition (GI50) in experiment [1] is above 3000 nM; in experiment [2], below 500 nM; with VCaP cells it was below 500 nM.

Turning to `Cc1sc2c(c1C)C(c1ccc(C#CC3CC4(CCCN(c5ccc(C(=O)N[C@H]6CC[C@H](Oc7ccc(C#N)c(Cl)c7)CC6)nn5)C4)C3)cn1)=NC(C)c1nnc(C)n1-2` (stereo partly drawn) [I-456], the 50% growth inhibitory concentration (GI50) in experiment [1] is 500 to 1500 nM; in experiment [2] it was below 500 nM; with VCaP cells, 500 to 1500 nM.

For `Cc1sc2c(c1C)C(c1ccc(C#CC3CC4(C3)CN(c3ccc(C(=O)N[C@H]5CC[C@H](Oc6ccc(C#N)c(Cl)c6)CC5)nn3)C4)cn1)=NC(C)c1nnc(C)n1-2` (stereo partly drawn) [I-457], the GI50 in experiment [1] (72 h) is above 3000 nM; in experiment [2] (72 h), below 500 nM; with VCaP cells (Homo sapiens, VCaP, 72 h), below 500 nM.

`Cc1sc2c(c1C)C(c1ccc(C#CC3CC4(C3)CN(c3ccc(C(=O)N[C@H]5CC[C@H](Oc6ccc(C#N)c(Cl)c6)CC5)nn3)C4)cn1)=N[C@@H](C)c1nnc(C)n1-2` [I-458]: the GI50 in experiment [1] (72 h) is below 500 nM; in experiment [2] (72 h) it was below 500 nM; in the experiment with VCaP cells (Homo sapiens, VCaP, 72 h), below 500 nM.

In the case of `Cc1sc2c(c1C)C(c1ccc(C#CC3CC4(CCCN(c5ccc(C(=O)N[C@H]6CC[C@H](Oc7ccc(C#N)c(Cl)c7)CC6)nn5)C4)C3)nc1)=N[C@@H](C)c1nnc(C)n1-2` (stereo partly drawn) [I-459], the GI50 in experiment [1] (72 h) is below 500 nM; in experiment [2] (72 h), below 500 nM; in the experiment on VCaP cells (Homo sapiens, VCaP, 72 h) it was below 500 nM.

Take `Cc1sc2c(c1C)C(c1ccc(C#CC3CC4(CCCN(c5ccc(C(=O)N[C@H]6CC[C@H](Oc7ccc(C#N)c(Cl)c7)CC6)nn5)C4)C3)nc1)=N[C@@H](C)c1nnc(C)n1-2` (stereo partly drawn) [I-460]: the values for the GI50 (in experiment [1]; in experiment [2]; in the experiment on VCaP cells) were 500 to 1500 nM, below 500 nM and below 500 nM, respectively.

As for `Cc1sc2c(c1C)C(c1ccc(OC3CC4(CCN(c5ccc(C(=O)N[C@H]6CC[C@H](Oc7ccc(C#N)c(Cl)c7)CC6)nn5)CC4)C3)cn1)=N[C@@H](C)c1nnc(C)n1-2` [I-461], the GI50 in experiment [1] is above 3000 nM; in experiment [2], below 500 nM; in the experiment on VCaP cells (Homo sapiens, VCaP, 72 h) it was below 500 nM.

Regarding `Cc1sc2c(c1C)C(c1ccc(OC3CC4(CCN(c5ccc(C(=O)N[C@H]6CC[C@H](Oc7ccc(C#N)c(Cl)c7)CC6)nn5)CC4)C3)nc1)=N[C@@H](C)c1nnc(C)n1-2` [I-462], the figures for the GI50 (in experiment [1]; in experiment [2]; with VCaP cells) were above 3000 nM, below 500 nM and below 500 nM, respectively.

Take `Cc1sc2c(c1C)C(c1ccc(N3CC(C4CCN(c5ccc(C(=O)N[C@H]6CC[C@H](Oc7ccc(C#N)c(Cl)c7)CC6)nn5)CC4)C3)nc1)=N[C@@H](C)c1nnc(C)n1-2` [I-463]: the concentration for 50% growth inhibition (GI50) is 500 to 1500 nM in experiment [1] (72 h); below 500 nM in experiment [2] (72 h); 500 to 1500 nM in the experiment with VCaP cells (Homo sapiens, VCaP, 72 h).

For the compound `Cc1sc2c(c1C)C(c1ccc(N3CC(C4CCN(c5ccc(C(=O)N[C@H]6CC[C@H](Oc7ccc(C#N)c(Cl)c7)CC6)nn5)CC4)C3)cn1)=N[C@@H](C)c1nnc(C)n1-2` [I-464], the concentration for 50% growth inhibition (GI50) in experiment [1] (72 h) is above 3000 nM; in experiment [2] (72 h), below 500 nM; in the experiment on VCaP cells (Homo sapiens, VCaP, 72 h) it was below 500 nM.

In the case of `Cc1sc2c(c1C)C(c1ccc(OC3CC4(C3)CC3(CCN(c5ccc(C(=O)N[C@H]6CC[C@H](Oc7ccc(C#N)c(Cl)c7)CC6)nn5)CC3)C4)cn1)=N[C@@H](C)c1nnc(C)n1-2` [I-465], the 50% growth inhibitory concentration (GI50) in experiment [1] (72 h) is above 3000 nM; in experiment [2] (72 h), below 500 nM; in the experiment with VCaP cells (Homo sapiens, VCaP, 72 h), below 500 nM.

Regarding `Cc1sc2c(c1C)C(c1ccc(CCN3[C@H](C)CN(c4ccc(C(=O)N[C@H]5CC[C@H](Oc6ccc(C#N)c(Cl)c6)CC5)nn4)C[C@@H]3C)cc1)=N[C@@H](Cc1ncco1)c1nnc(C)n1-2` [I-466], the GI50 in experiment [1] (72 h) is below 500 nM; in experiment [2] (72 h), below 500 nM; in the experiment with VCaP cells (Homo sapiens, VCaP, 72 h), below 500 nM.

As to `Cc1sc2c(c1C)C(c1ccc(N3CCC(CCc4ccc(C(=O)N[C@H]5CC[C@H](Oc6ccc(C#N)c(Cl)c6)CC5)nn4)CC3)cc1)=N[C@@H](Cc1ncco1)c1nnc(C)n1-2` [I-467], the concentration for 50% growth inhibition (GI50) was below 500 nM in experiment [1] (72 h); below 500 nM in experiment [2] (72 h); below 500 nM with VCaP cells (Homo sapiens, VCaP, 72 h).

As to `Cc1sc2c(c1C)C(c1ccc(OC3(C)CC4(CN(c5ccc(C(=O)N[C@H]6CC[C@H](Oc7ccc(C#N)c(Cl)c7)CC6)nn5)C4)C3)cc1)=N[C@@H](Cc1ncco1)c1nnc(C)n1-2` [I-468], the concentration for 50% growth inhibition (GI50) is below 500 nM in experiment [1] (72 h); below 500 nM in experiment [2] (72 h); below 500 nM with VCaP cells (Homo sapiens, VCaP, 72 h).

For the compound `Cc1sc2c(c1C)C(c1ccc(N3CC4(CC(Cc5ccc(C(=O)N[C@H]6CC[C@H](Oc7ccc(C#N)c(Cl)c7)CC6)nn5)C4)C3)cc1)=N[C@@H](Cc1ncco1)c1nnc(C)n1-2` [I-469], the concentration for 50% growth inhibition (GI50) is above 3000 nM in experiment [1] (72 h); below 500 nM in experiment [2] (72 h); below 500 nM in the experiment with VCaP cells (Homo sapiens, VCaP, 72 h).

For the compound `Cc1sc2c(c1C)C(c1ccc(OCC3CC4(CCCN(c5ccc(C(=O)N[C@H]6CC[C@H](Oc7ccc(C#N)c(Cl)c7)CC6)nn5)C4)C3)cc1)=NC1(CC1)c1nnc(C)n1-2` (stereo partly drawn) [I-470], the GI50 in experiment [1] was 500 to 1500 nM; in experiment [2] (72 h), below 500 nM; with VCaP cells, 500 to 1500 nM.

`Cc1sc2c(c1C)C(c1ccc(OCC3CC4(CCCN(c5ccc(C(=O)N[C@H]6CC[C@H](Oc7ccc(C#N)c(Cl)c7)CC6)nn5)C4)C3)cc1)=NC1(CC1)c1nnc(C)n1-2` (stereo partly drawn) [I-471]: the GI50 in experiment [1] was above 3000 nM; in experiment [2] it was below 500 nM; in the experiment on VCaP cells it was 1500 to 3000 nM.

`Cc1sc2c(c1C)C(c1ccc(OC3CC4(CCCN(c5ccc(C(=O)N[C@H]6CC[C@H](Oc7ccc(C#N)c(Cl)c7)CC6)nn5)C4)C3)cc1)=NCc1nnc(C)n1-2` (stereo partly drawn) [I-473]: the concentration for 50% growth inhibition (GI50) is above 3000 nM in experiment [1] (72 h); below 500 nM in experiment [2] (72 h); below 500 nM with VCaP cells (Homo sapiens, VCaP, 72 h).

As to `Cc1sc2c(c1C)C(c1ccc(CC3CC4(CCCN(c5ccc(C(=O)N[C@H]6CC[C@H](Oc7ccc(C#N)c(Cl)c7)CC6)nn5)C4)C3)cc1)=NCc1nnc(C)n1-2` (stereo partly drawn) [I-474], the GI50 in experiment [1] is above 3000 nM; in experiment [2] (72 h), below 500 nM; in the experiment on VCaP cells, above 3000 nM.

As for `Cc1sc2c(c1C)C(c1ccc(OCC3CC4(CCCN(c5ccc(C(=O)N[C@H]6CC[C@H](Oc7ccc(C#N)c(Cl)c7)CC6)nn5)C4)C3)cc1)=NCc1nnc(C)n1-2` (stereo partly drawn) [I-475], the GI50 was above 3000 nM in experiment [1], below 500 nM in experiment [2] (72 h) and below 500 nM in the experiment with VCaP cells.
